Laboratory results reported in patent publication US6649639B2, “Antipicornaviral compounds, compositions containing them, and methods for their use” (priority 1997, dated 2003).

What was measured:
HI-HeLa cells [1] = assay: Cytotoxicity (CC50) in mock-infected HI-HeLa cells, antirhinoviral assay; format: cell-based
HRV serotype-14 = assay: Antirhinoviral HI-HeLa Cell Culture Assay (XTT cell protection), HRV-14; format: cell-based, human rhinovirus; details: HRV serotype-14, HI-HeLa cells
Description: (§1) In the Cell Protection Assay, the ability of compounds to protect cells against HRV infection was measured by the XTT dye reduction method. This method is described in Weislow, O. S., Kiser, R., Fine, D. L., Bader, J., Shoemaker, R. H., Boyd, M. R., J. Natl. Cancer Inst. 1989, 81, 577-586, the disclosure of which is incorporated herein by reference.
(§2) Infected or mock-infected cells were suspended at 8×10^5 cells per mL and incubated with appropriate concentrations of compounds of formula I. Two days later, XTT/PMS was added to test plates, and the amount of formazan produced was quantified spectrophotometrically at 450/650 nm. […] The therapeutic index (TI) was calculated by dividing the CC50 by the EC50.
(§3) All strains of human rhinovirus (HRV) for use in this assay were purchased from American Type Culture Collection (ATCC) except for HRV serotype-14, which was produced from the infectious cDNA clone constructed and supplied to Applicants by Dr. Robert Rueckert at the Institute for Molecular Virology, University of Wisconsin, Madison, Wis. HRV stocks were propagated, and viral assays were performed in HI-HeLa cells (ATCC). Cells were grown in Minimal Essential Medium, available from Life Technologies, with 10% fetal bovine serum.
(§4) The compounds were tested against control compounds WIN 51711, WIN 52084, and WIN 54954, all obtained from Sterling-Winthrop Pharmaceuticals, and control compound Pirodavir, obtained from Janssen Pharmaceuticals. Antiviral data obtained for the test compounds are shown in Table 2 where all data are for HRV serotype-14 unless otherwise noted in parentheses.

[2] = target: T1, Recombinant Rhinovirus 3C protease serotype 14 (Human rhinovirus 14, UniProt P03303); assay: Inhibition of Rhinovirus Protease (FRET assay), serotype 14; format: biochemical, human rhinovirus (HRV) serotype 14; details: for kobs/I: RVP serotype-14, enzyme start progress curves
T1 construct: Recombinant Rhinovirus 3C proteases from serotypes 14, 16, and 2; made in house

[3] = target: Recombinant Rhinovirus 3C protease serotype 2 (Human rhinovirus 2, UniProt P04936); details: RVP serotype 2; enzyme start progress curves
Description: (§5) Stock solutions (50 mM, in DMSO) of various compounds were prepared; dilutions were in the same solvent. […] Assays contained 2% DMSO, 50 mM tris pH 7.6, 1 mM EDTA, a compound at the indicated concentrations, approximately 1 μM substrate, and 50-100 nM protease. […] The kobs/I values were obtained from reactions initiated by addition of enzyme rather than substrate. RVP activity is measured in the fluorescence resonance energy transfer assay.
(§6) In the above table, all data are for RVP serotype-14 unless otherwise noted in parentheses. All strains of human rhinovirus (HRV) were purchased from American Type Culture Collection (ATCC) except for serotype 14, which was produced from the infectious cDNA clone constructed and supplied to Applicants by Dr. Robert Rueckert at the Institute for Molecular Virology, University of Wisconsin, Madison, Wis. The column designated INHIB represents the percent inhibition at 10 minute preincubation with 50 nM RVP prior to addition of substrate. The data in the column designated kobs/I was measured from progress curves in enzyme start experiments.

[4] = target: Recombinant Rhinovirus 3C protease serotype 16 (Human rhinovirus 16, UniProt Q82122); details: RVP serotype 16; enzyme start progress curves
Description: as §5, §6

HRV serotype 10 = assay: Antirhinoviral HI-HeLa Cell Culture Assay (XTT cell protection), HRV serotype 10; format: cell-based, human rhinovirus; details: HRV serotype 10, HI-HeLa cells
Description: as §1, §2, §3, §4

HRV serotype 2 = assay: Antirhinoviral HI-HeLa Cell Culture Assay (XTT cell protection), HRV serotype 2; format: cell-based, human rhinovirus; details: HRV serotype 2, HI-HeLa cells
Description: as §1, §2, §3, §4

HRV serotype 1A = assay: Antirhinoviral HI-HeLa Cell Culture Assay (XTT cell protection), HRV serotype 1A; format: cell-based, human rhinovirus; details: HI-HeLa cells
Description: as §1, §2, §3, §4

HI-HeLa cells [5] = assay: Cytotoxicity (CC50) in uninfected HI-HeLa cells, anticoxsackieviral assay; format: cell-based; details: CVA-21 assay
Description: The Coxsackie strain A-21 (CVA-21) was purchased from American Type Culture Collection (ATCC). Virus stocks were propagated, and antiviral assays were performed in HI-HeLa cells (ATCC). Cells were grown in Minimal Essential Medium with 10% fetal bovine serum.
The ability of compounds to protect cells against CVA-21 infection was measured by the XTT dye reduction method. This method is described in Weislow, O. S., Kiser, R., Fine, D. L., Bader, I., Shoemaker, R. H., Boyd, M. R., J. Natl. Cancer Inst. 1989, 81, 577-586, the disclosure of which is incorporated herein by reference. HI-HeLa cells were infected with CVA-21 at a multiplicity of infection (m.o.i.) of 0.05 (CVA-21) or mock-infected with medium only. Infected or uninfected cells were resuspended at 4×10^4 cells per mL and incubated with appropriate concentrations of drug. One day later, XTT/PMS was added to test plates, and the amount of formazan produced was quantified spectrophotometrically at 450/650 nm. […] The therapeutic index (Th) was calculated by dividing the CC50 by the EC50.

HRV serotype 39 = assay: Antirhinoviral HI-HeLa Cell Culture Assay (XTT cell protection), HRV serotype 39; format: cell-based, human rhinovirus; details: HRV serotype 39, HI-HeLa cells
Description: as §1, §2
as §3, with “serum. […]” for “serum.”

HRV serotype 89 = assay: Antirhinoviral HI-HeLa Cell Culture Assay (XTT cell protection), HRV serotype 89; format: cell-based, human rhinovirus; details: HRV serotype 89, HI-HeLa cells
Description: as §1, §2
as §3, with “serum. […]” for “serum.”

HRV serotype 16 = assay: Antirhinoviral HI-HeLa Cell Culture Assay (XTT cell protection), HRV serotype 16; format: cell-based, human rhinovirus; details: HRV serotype 16, HI-HeLa cells
Description: as §1, §2
as §3, with “serum. […]” for “serum.”

T1 sequence (P03303 1538-1719): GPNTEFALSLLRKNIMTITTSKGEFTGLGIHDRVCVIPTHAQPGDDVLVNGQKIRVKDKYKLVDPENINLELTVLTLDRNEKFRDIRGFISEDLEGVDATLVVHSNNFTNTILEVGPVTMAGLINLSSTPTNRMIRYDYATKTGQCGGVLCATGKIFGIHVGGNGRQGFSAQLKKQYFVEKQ
Sequence of Recombinant Rhinovirus 3C protease serotype 16 (Q82122 1511-1693): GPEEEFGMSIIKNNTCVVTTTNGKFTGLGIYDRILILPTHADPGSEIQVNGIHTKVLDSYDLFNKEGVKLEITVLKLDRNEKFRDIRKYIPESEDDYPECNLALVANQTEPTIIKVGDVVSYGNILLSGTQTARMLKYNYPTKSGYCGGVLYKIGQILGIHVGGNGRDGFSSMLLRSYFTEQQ
Sequence of Recombinant Rhinovirus 3C protease serotype 2 (P04936 1508-1690): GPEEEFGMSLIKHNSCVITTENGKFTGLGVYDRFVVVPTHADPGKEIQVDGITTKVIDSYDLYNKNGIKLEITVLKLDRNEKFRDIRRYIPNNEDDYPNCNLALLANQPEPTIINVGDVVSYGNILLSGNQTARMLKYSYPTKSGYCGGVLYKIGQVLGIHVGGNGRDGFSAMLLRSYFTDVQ

| Compound | CC50 (HI-HeLa cells [1]; line of HRV serotype-14) [nM] | EC50 (HRV serotype-14) [nM] | CC50 (HI-HeLa cells [1]; line of HRV serotype 1A) [nM] | CC50 (HI-HeLa cells [1]; line of HRV serotype 10) [nM] | EC50 (HRV serotype 10) [nM] | EC50 (HRV serotype 1A) [nM] | further results |
| --- | --- | --- | --- | --- | --- | --- | --- |
| CCOC(=O)/C=C/C(CCC(N)=O)NC(=O)C(CC(=O)C(NC(=O)SCc1ccccc1)C(C)C)Cc1ccccc1 [Compound 5, Ethyl-3-(BnSCO-L-ValΨ[COCH2]-L-Phe-L-Gln)-E-Propenoate] | > 320000 | 190 | – | – | – | – | – |
| CCOC(=O)/C=C/C(CCC(N)=O)NC(=O)C(CC(=O)C(CC(C)C)NC(=O)OCc1ccccc1)Cc1ccccc1 [Compound 1, Ethyl-3-(CBZ-L-LeuΨ[COCH2]-L-Phe-L-Gln)-E-Propenoate] | > 320000 | 360 | – | – | – | – | kobs/I [2]: 17,380 M^−1sec^−1; kobs/I [3]: 2,242 M^−1sec^−1; kobs/I [4]: 3,880 M^−1sec^−1 |
| CCOC(=O)C=CC(CCC(N)=O)NC(=O)C(CC(=O)C(NC(=O)C1SCCS1)C(C)C)Cc1ccc(F)cc1 (stereo not drawn) [Compound 27] | > 1000 | – | > 1000 | > 1000 | 3300 | – | – |
| CCOC(=O)/C=C/[C@H](CCC(N)=O)NC(=O)[C@@H](CC(=O)[C@@H](NC(=O)SCC)C(C)C)Cc1ccc(C)cc1 [Compound 10, Ethyl-3-(EtSCO-L-ValΨ[COCH2]-L-(p-CH3)Phe-L-Gln)-E-Propenoate] | > 1000 | 11 | – | – | – | – | EC50 (HRV serotype 2): 180 nM; CC50 (HI-HeLa cells [1]; line of HRV serotype 2): > 1000 nM |
| CC(C)CC(NC(=O)SCc1ccccc1)C(=O)CC(Cc1ccccc1)C(=O)NC(C=CC(=O)N1CCc2ccccc21)CCC(N)=O [Compound 3, (2,3-Dihydroindole)-3-(BnSCO-L-LeuΨ[COCH2]-L-Phe-L-Gln)-E-Propenamide] | – | – | – | – | – | – | Ki [2]: > 7000 nM |
| CCOC(=O)C=CC(CCC(N)=O)NC(=O)C(CC(=O)C(NC(=O)SC(C)(C)C)C(C)C)Cc1ccc(F)cc1 (stereo not drawn) [Compound 26] | > 10000 | 50 | > 10000 | > 10000 | 550 | – | – |
| CCOC(=O)/C=C/[C@H](CCC(N)=O)NC(=O)[C@@H](CC(=O)[C@@H](NC(=O)SCC)C(C)C)Cc1ccccc1 [Compound 4, Ethyl-3-(EtSCO-L-ValΨ[COCH2]-L-Phe-L-Gln)-E-Propenoate] | > 320000 | 100 | – | – | – | – | EC50 (HRV serotype 2): 500 nM; CC50 (HI-HeLa cells [1]; line of HRV serotype 2): > 320000 nM |
| CC(C)C(NC(=O)SC1CCCC1)C(=O)CC(Cc1ccc(F)cc1)C(=O)NC(C=CC(=O)OCc1cccnc1)CCC(N)=O (stereo not drawn) [Compound 28] | > 10000 | – | > 10000 | > 10000 | 1000 | 600 | – |
| Ethyl-3-(CyPentylSCO-L-CyhexΨ[COCH2]-L-(p-F)Phe-L-Gln)-E-Propenoate [Compound 24] | – | 32 | – | – | – | – | – |
| CCOC(=O)/C=C/[C@H](CCC(N)=O)NC(=O)[C@@H](CC(=O)[C@H](CC(C)C)NC(=O)SC1CCCC1)Cc1ccccc1 [Compound 8, Ethyl-3-(CyPentylSCO-L-LeuΨ[COCH2]-L-Phe-L-Gln)-E-Propenoate] | > 100000 | 190 | – | – | – | – | – |
| CC(C)C(NC(=O)SC1CCCC1)C(=O)CC(Cc1ccc(F)cc1)C(=O)NC(C=CC(=O)OCCO)CCC(N)=O (stereo not drawn) [Compound 33] | > 32000 | 510 | > 32000 | > 32000 | 1600 | 1700 | kobs/I [2]: 281,000 M^−1sec^−1 |
| CC(C)C(NC(=O)SC(C)(C)C)C(=O)CC(Cc1ccc(F)cc1)C(=O)NC(C=CC(=O)OCc1cccnc1)CCC(N)=O (stereo not drawn) [Compound 32] | > 32000 | 400 | > 32000 | > 32000 | 1900 | 2200 | kobs/I [2]: 58,000 M^−1sec^−1 |
| CCOC(=O)C=CC(CCC(N)=O)NC(=O)C(CC(=O)C(NC(=O)C1SCCCS1)C(C)C)Cc1ccc(F)cc1 (stereo not drawn) [Compound 31] | > 3000 | – | > 3000 | > 3000 | 4700 | 6300 | – |
| CCOC(=O)C=CC(CCC(N)=O)NC(=O)C(CC(=O)C(NC(=O)c1cc(C)on1)C(C)C)Cc1ccc(F)cc1 (stereo not drawn) [Compound 34] | > 3000 | – | > 3000 | > 3000 | 400 | 300 | – |
| CCOC(=O)/C=C/C(CCC(N)=O)NC(=O)C(CC(=O)C(CC(C)C)NC(=O)SCc1ccccc1)Cc1ccccc1 [Compound 6, Ethyl-3-(BnSCO-L-LeuΨ[COCH2]-L-Phe-L-Gln)-E-Propenoate] | > 100000 | 680 | – | – | – | – | – |
| Cc1cc(CCCCCOc2c(Cl)cc(C3=NCCO3)cc2Cl)on1 [WIN 54954, reference compound] | – | – | – | – | – | – | CC50 (HI-HeLa cells [5]): > 100000 nM |
| CCOC(=O)/C=C/C(CCC(N)=O)NC(=O)C(CC(=O)C(NC(=O)SC1CCCC1)C(C)C)Cc1ccccc1 [Compound 7, Ethyl-3-(CyPentylSCO-L-ValΨ[COCH2]-L-Phe-L-Gln)-E-Propenoate] | > 10000 | 22 | – | > 10000 | 35 | – | CC50 (HI-HeLa cells [5]): > 10000 nM; EC50 (HRV serotype 39): 130 nM; EC50 (HRV serotype 2): 100 nM; EC50 (HRV serotype 89): 4 nM; CC50 (HI-HeLa cells [1]; line of HRV serotype 2): > 10000 nM; CC50 (HI-HeLa cells [1]; line of HRV serotype 39): > 10000 nM; CC50 (HI-HeLa cells [1]; line of HRV serotype 89): > 10000 nM |
| CC(C)C(NC(=O)C1SCCS1)C(=O)CC(Cc1ccc(F)cc1)C(=O)NC(C=CC(=O)OCc1cccnc1)CCC(N)=O (stereo not drawn) [Compound 30] | > 100000 | 1500 | – | – | – | – | kobs/I [2]: 292,000 M^−1sec^−1 |
| CCOC(=O)/C=C/C(CCC(N)=O)NC(=O)C(CC(=O)C(NC(=O)SC1CCCC1)C(C)C)Cc1ccc(C)cc1 [Compound 11, Ethyl-3-(CyPentylSCO-L-ValΨ[COCH2]-L-(p-CH3)Phe-L-Gln)-E-Propenoate] | > 3000 | 6 | > 3000 | > 3000 | 60 | 160 | EC50 (HRV serotype 39): 130 nM; EC50 (HRV serotype 2): 120 nM; EC50 (HRV serotype 16): 25 nM; CC50 (HI-HeLa cells [1]; line of HRV serotype 2): > 3000 nM; CC50 (HI-HeLa cells [1]; line of HRV serotype 16): > 3000 nM; CC50 (HI-HeLa cells [1]; line of HRV serotype 39): > 3000 nM |
| CCOC(=O)/C=C/[C@H](CCC(N)=O)NC(=O)[C@@H](CC(=O)[C@H](CC(C)C)NC(=O)SCC)Cc1ccccc1 [Compound 2, Ethyl-3-(EtSCO-L-LeuΨ[COCH2]-L-Phe-L-Gln)-E-Propenoate] | > 320000 | 240 | – | – | – | – | EC50 (HRV serotype 2): 1800 nM; CC50 (HI-HeLa cells [1]; line of HRV serotype 2): > 320000 nM |
